Measurements: US5736518A, “Peptide compounds of (L) amino acids and ring molecules, and therapeutical applications thereof” (Polifarma S.p.A., priority 1990, dated 1998)
Square brackets hold non-standard residues; d marks the D form. Peptide text beside a SMILES is read from it. * marks the point of attachment. Trp(1-Me) = Cn1cc(C[C@H](N)C(=O)O)c2ccccc21; Tic = O=C(O)[C@@H]1Cc2ccccc2CN1; pGlu = O=C1CC[CH](C(=O)O)N1; Hyp = O=C(O)[CH]1C[CH](O)CN1; Phg = N[CH](C(=O)O)c1ccccc1; ΔPro = O=C(O)[C@@H]1C=CCN1; Pip = O=C(O)[C@@H]1CCCCN1; αMeP = C[C]1(C(=O)O)CCCN1; Cbz = O=C(OCc1ccccc1)*; Aze = O=C(O)[CH]1CCN1; Boc = CC(C)(C)OC(=O)*

Columns and labels:
[1] = analgesic activity, test not given (Hot Plate and Writhing Tests were used); format: in vivo; settings: test and dose not stated
Text: (§1) In the following examples will first of all be given the data necessary for synthesis of the compounds according to the present invention. There will then be given data regarding their pharmacological activity, using methods widely known to be valid. In particular, for the pressure tests, spontaneously hyper-tensive rats were used (SHR from the company Charles River), operated in such a way as to enable pressure to be read even when the animals were awake and free to move. In order to evaluate the analgesic activity, the Hot Plate and Writhing Tests were used. For the anti-inflammatory effect the test of carraginine edema was used. Finally, for immuno-modulating activity the evaluation of the stimulation of growth of human lymphocytes in culture was resorted to, after the addition of specific antigens. The results obtained for each synthesized compound are given at the end of each example.

[2] = system: spontaneously hyper-tensive rats (SHR from the company Charles River); assay: pressure tests in spontaneously hypertensive rats, awake and free to move; format: in vivo
Text: as §1, with “antigens.” for “antigens. The results obtained for each synthesized compound are given at the end of each example.”

[3] = system: human lymphocytes in culture; assay: immuno-modulating activity: stimulation of growth of human lymphocytes in culture after addition of specific antigens; format: cell-based; settings: human lymphocytes in culture; antigen not stated
Text: as §1

carraginine edema = assay: anti-inflammatory effect, test of carraginine edema; format: in vivo; settings: edema from carrageenin; dose not stated
Text: as §1

Row | SMILES | immune response / immuno-stimulating activity (in words) [3] | anti-hypertensive effect (in words) ([2]; dose not stated) | anti-inflammatory effect (in words) (carraginine edema) | further results
1 | COC(=O)C(Cc1c[nH]c2ccccc12)NC(=O)C(CC(C)C)NC(=O)C1CCCN1C.Cl (centres unmarked) [compound 10, N-Me-(L)-Pro-(L)-Leu-(L)-TrpOMe.HCl] | slightly increased |  |  | analgesic effect (in words) [1]: low analgesic effect; anti-hypertensive effect (in words) ([2]; 2 mg/Kg i.v.): excellent anti-hypertensive effect; reduction of pressure ([2]; 2 mg/Kg i.v.): 15-20%
2 | COC(=O)C(Cc1c[nH]c2ccccc12)NC(=O)C(CC(C)C)NC(=O)C1CCN1C(=O)OCc1ccccc1 [compound 17, Z-(S)-Aze-(L)-Leu-(L)-TrpOMe] (Cbz-[Aze]-Leu-Trp-OMe; configuration not given here) |  | slight anti-hypertensive effect | bland anti-inflammatory activity | 
3 | COC(=O)[C@@H]1Cc2ccccc2CN1C(=O)[C@H](CC(C)C)NC(=O)[C@@H]1CCC(=O)N1C(=O)OCc1ccccc1 [compound 21, Z-(L)-Pyr-(L)-Leu-(S)-CyPOMe] | good immuno-stimulating activity | slight anti-hypertensive activity |  | 
4 | COC(=O)[C@@H]1Cc2ccccc2CN1C(=O)[C@H](C)NC(=O)[C@@H]1CCCN1C(=O)OCc1ccccc1 [compound 11, Z-(L)-Pro-(L)-Ala(L)-CypOMe] (Cbz-Pro-Ala-[Tic]-OMe) |  | slight anti-hypertensive effect | moderate anti-inflammatory effect | 
5 | COC(=O)[C@H](Cc1c[nH]c2ccccc12)NC(=O)[C@H](CC(C)C)NC(=O)[C@@H]1CCC(=O)N1C(=O)OCc1ccccc1 [compound 19, Z-(L)-Pyr-(L)-Leu-(L)-TrpOMe] |  | slight anti-hypertensive effect | fair anti-inflammatory activity | 
6 | COC(=O)C(Cc1c[nH]c2ccccc12)NC(=O)C(CC(C)C)NC(=O)C1CC(O)CN1C(=O)OCc1ccccc1 (stereo not drawn) [compound 16, Z-(L)-Hyp-(L)-Leu-(L)-TrpOMe] (Cbz-[Hyp]-Leu-Trp-OMe; configuration not given here) |  | bland anti-hypertensive action |  | analgesic effect (in words) [1]: modest analgesic effect
7 | C[C@H](NC(=O)[C@@H]1CCCN1C(=O)OCc1ccccc1)C(=O)NCCc1c[nH]c2ccccc12 [compound 2, Z-(L)-Pro-(L)-Ala-TrpH] | increased, but to a lesser extent than in the previous compound | comparable to that of compound 1 |  | 
8 | COC(=O)[C@H](Cc1c[nH]c2ccccc12)NC(=O)[C@H](CC(C)C)NC(=O)c1ccco1 [compound 8, 2-Fur-(L)-Leu-(L)-TrpOMe] | strongly stimulated even with small doses of peptide |  | slight antiinflammatory effect | anti-hypertensive effect (in words) ([2]; 4 mg/Kg i.v.): slight anti-hypertensive effect
9 | COC[C@H](Cc1ccccc1)NC(=O)CNC(=O)[C@@H]1CCC(=O)N1 [compound 23, (L)-Pyr-Gly-(L)-Pme] | good immuno-stimulating effect |  |  | analgesic effect (in words) [1]: excellent analgesic effect; anti-hypertensive effect (in words) ([2]; 8 mg/Kg i.p.): good anti-hypertensive activity
10 | COC(=O)[C@H](Cc1c[nH]c2ccccc12)NC(=O)[C@H](CC(C)C)NC(=O)[C@@H]1C=CCN1C(=O)OC(C)(C)C [compound 13, Boc-.gradient.^3,4 -(L)-Pro-(L)-Leu-(L)-TrpOMe] (Boc-[ΔPro]-Leu-Trp-OMe) | slightly increases the immune response | slightly anti-hypertensive |  | 
11 | COC(=O)[C@H](Cc1c[nH]c2ccccc12)NC(=O)[C@H](CC(C)C)NC(=O)[C@@H]1Cc2ccccc2N1C(=O)OCc1ccccc1 [compound 14, Z-(S)-Dhi-(L)-Leu-(L)-TrpOMe] |  | bland reduction of pressure |  | analgesic effect (in words) [1]: moderate analgesic effect
12 | COC(=O)C(NC(=O)CNC(=O)C1CCC(=O)N1)c1ccccc1 (stereo not drawn) [compound 22, (L)-Pyr-Gly-(L)-PhgOMe] ([pGlu]-Gly-[Phg]-OMe; configuration not given here) | appears to increase the immune response |  | very good | anti-hypertensive effect (in words) ([2]; 4 mg/Kg i.p.): excellent anti-hypertensive activity; reduction of pressure values ([2]; 4 mg/Kg i.p.): 20%
13 | COC(=O)[C@@H]1Cc2c([nH]c3ccccc23)CN1C(=O)[C@H](CC(C)C)NC(=O)[C@@H]1CCC(=O)N1 [compound 25, (L)-Pyr-(L)-Leu-(S)-CytOMe] |  | bland anti-hypertensive effect |  | analgesic effect (in words) [1]: weak analgesic activity
14 | COC(=O)[C@@H]1Cc2c([nH]c3ccccc23)CN1C(=O)[C@H](CC(C)C)NC(=O)[C@@H]1CCC(=O)N1C(=O)OCc1ccccc1 [compound 20, Z-(L)-Pyr-(L)-Leu-(S)-CytOMe] |  | bland anti-hypertensive activity | fair anti-inflammatory activity | 
15 | COC(=O)[C@H](Cc1c[nH]c2ccccc12)NC(=O)[C@H](CC(C)C)NC(=O)c1ccc[nH]1 [compound 9, 2-Pyrrolyl-(L)-Leu-(L)-TrpOMe] |  | slight effect on pressure | bland reduction of inflammatory responses | 
16 | COC(=O)[C@@H]1Cc2ccccc2CN1C(=O)CNC(=O)[C@@H]1CCC(=O)N1 [compound 24, (L)-Pyr-Gly-(L)-CypOMe] ([pGlu]-Gly-[Tic]-OMe) |  | bland anti-hypertensive action | moderate anti-inflammatory action | 
17 | COC[C@H](Cc1ccccc1)NC(=O)[C@H](C)NC(=O)[C@@H]1CCCN1C(=O)OCc1ccccc1 [compound 6, Z-(L)-Pro-(L)-Ala-(L)-Pme] | more consistent |  | rather weak | analgesic effect (in words) [1]: good analgesic activity; anti-hypertensive effect (in words) ([2]; 2 mg/Kg i.v.): good anti-hypertensive activity; reduction of pressure after one hour ([2]; 2 mg/Kg i.v., after one hour): approximately 25%
18 | COC(=O)[C@H](Cc1c[nH]c2ccccc12)NC(=O)[C@H](CC(C)C)NC(=O)[C@@H]1CCCCN1C(=O)OCc1ccccc1 [compound 15, Z-(L)-Pip-(L)-Leu-(L)-TrPOMe] (Cbz-[Pip]-Leu-Trp-OMe) | slight increase in immune response |  | consistent | anti-hypertensive effect (in words) ([2]; 2 mg/Kg i.v.): good anti-hypertensive effect; reduction of pressure ([2]; 2 mg/Kg i.v.): up to 30%
19 | COC(=O)[C@H](Cc1ccc(OC)cc1)NC(=O)[C@H](C)NC(=O)[C@@H]1CCCN1C(=O)OCc1ccccc1 [compound 4, Z-(L)-Pro-(L)-Ala-(L)-OmtOMe] (Cbz-Pro-Ala-Tyr(Me)-OMe) | slightly increased |  |  | anti-hypertensive effect (in words) ([2]; 8 mg/Kg i.v.): bland anti-hypertensive effect
20 | COC(=O)C(Cc1c[nH]c2ccccc12)NC(=O)C(CC(C)C)NC(=O)C1(C)CCCN1C(=O)OC(C)(C)C (stereo not drawn) [compound 12, Boc-(L)-Mep-(L)-Leu-(L)-TrpOMe] (Boc-[αMeP]-Leu-Trp-OMe; configuration not given here) |  | bland anti-hypertensive effect | reduction of the inflammatory response | 
21 | COC(=O)[C@H](Cc1cn(C)c2ccccc12)NC(=O)[C@H](C)NC(=O)[C@@H]1CCCN1C(=O)OCc1ccccc1 [compound 7, Z-(L)-Pro-(L)-Ala-(1)-Me-(L)-TrpOMe] (Cbz-Pro-Ala-[Trp(1-Me)]-OMe) |  |  |  | anti-hypertensive effect (in words) ([2]; 2 mg/Kg i.v.): good anti-hypertensive effect; reduction of pressure ([2]; 2 mg/Kg i.v.): 10%
22 | C[C@H](NC(=O)[C@@H]1CCCN1C(=O)OCc1ccccc1)C(=O)N1CCc2c([nH]c3ccccc23)C1 [compound 3, Z-(L)-Pro-(L)-Ala-CytH] |  |  |  | anti-hypertensive effect (in words) ([2]; 8 mg/Kg i.p.): bland anti-hypertensive effect
23 | COC(=O)[C@H](Cc1c[nH]c2ccccc12)NC(=O)[C@H](CC(C)C)NC(=O)[C@@H]1CCCO1 [compound 18, (S)-Tfc-(L)-Leu-(L)-TrpOMe] | stimulates the immune response in a moderate manner | bland anti-hypertensive effect |  | 
